Here are results for 11 molecules from PubChem BioAssay (NCI).

Values joined by “and” are separate entries in the source; they are usually repeats but may differ in a detail not shown here. Equal entries are not always repeated.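 Cultured in 96-well plates, cells were exposed to test compound for 48 hours across five concentrations. The concentration for 50% growth inhibition is given as GI50. TGI denotes the concentration required for complete inhibition of growth.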 Where a SMILES comes first, the peptide text is derived from it. Bridges are numbered along the chain shown (N, C = ends). [ ]: non-standard residue; d: D form. The star is where a group is joined. ξ: configuration not given here. ξDab(CH2SO3H) = NC(CCNCS(=O)(=O)O)C(=O)O; Heptanoyl(6-Me) = CC(C)CCCCC(=O)*; Dab = NCC[CH](N)C(=O)O Some results are limits rather than exact numbers.

Test systems include K-562 leukemia; ACHN renal; SF-539 CNS; COLO 205 colon; NCI-H460 lung; OVCAR-4 ovarian; M14 melanoma; SF-268 CNS; SNB-19 CNS; HCC-2998 colon.
Holding throughout (assay): NCI anticancer screen, dose series, 48 h

Take `CC1=NN(c2ccc(S(=O)(=O)O)cc2)C(=O)/C1=C/c1ccc(Cl)cc1`: the TGI with K-562 leukemia, in the assay with ACHN renal, in the assay on SF-539 CNS, in the assay on COLO 205 colon, in the assay with NCI-H460 lung and with OVCAR-4 ovarian was > 100 µM throughout. For the same molecule, the TGI with M14 melanoma, in the assay on SF-268 CNS and in the assay on SNB-19 CNS was > 100 µM in each case.
Turning to `CCC(C)C1NC(=O)C(CCNCS(=O)(=O)O)NC(=O)C(NC(=O)C(CCNCS(=O)(=O)O)NC(=O)C(NC(=O)C(CCNCS(=O)(=O)O)NC(=O)CCCCC(C)C)C(C)O)CCNC(=O)C(C(C)O)NC(=O)C(CCNCS(=O)(=O)O)NC(=O)C(CCNCS(=O)(=O)O)NC(=O)C(C(C)CC)NC1=O` (stereo unspecified) ({Heptanoyl(6-Me)}-[ξDab(CH2SO3H)]T[ξDab(CH2SO3H)][Dab][ξDab(CH2SO3H)]II[ξDab(CH2SO3H)][ξDab(CH2SO3H)]T; lactam 4-C; configuration not given here), the GI50 with ACHN renal is > 25 µM; in the assay on SF-539 CNS, 7.16 µM; in the assay on COLO 205 colon, 3.26 µM; in the assay with NCI-H460 lung, 6.86 µM; in the assay on OVCAR-4 ovarian it was 11.3 µM; with M14 melanoma it was 5.72 µM. Further, the GI50 with HCC-2998 colon was 5.28 µM; with SF-268 CNS, 6.88 µM; in the assay with SNB-19 CNS, 11.6 µM. Besides, the TGI is > 25 µM with ACHN renal; > 25 µM in the assay on SF-539 CNS; 8.85 µM in the assay with COLO 205 colon; 22.1 µM in the assay with NCI-H460 lung; > 25 µM in the assay with OVCAR-4 ovarian; 20.6 µM with M14 melanoma. The TGI in the assay on HCC-2998 colon is 14.2 µM; in the assay on SF-268 CNS it was > 25 µM; in the assay on SNB-19 CNS it was > 25 µM.
`N#CCCCCCOCCOCCOCCOCCOCCCCCC#N`: the TGI in the assay with K-562 leukemia, in the assay with ACHN renal, in the assay on COLO 205 colon, with NCI-H460 lung, in the assay with OVCAR-4 ovarian and in the assay on M14 melanoma was > 100 µM throughout. Also, the TGI in the assay on HCC-2998 colon, in the assay on SF-268 CNS and in the assay on SNB-19 CNS was > 100 µM each time.
With `COc1ccc2c(O)c(/C=C3\N=Nc4ccccc43)oc2c1C[C@@H]1CCNC[C@H]1F`, the GI50 in the assay with ACHN renal was 1.74 µM; in the assay on SF-539 CNS, 1.6 µM; in the assay with COLO 205 colon, 1.88 µM; in the assay with NCI-H460 lung, 2.02 µM; in the assay on OVCAR-4 ovarian it was 11.4 µM; in the assay on M14 melanoma, 6.12 µM. Besides, the values for the GI50 in the assay on SF-268 CNS and in the assay with SNB-19 CNS were 3.13 µM and 9.29 µM, respectively. Further, the TGI in the assay on ACHN renal turned out to be 3.41 µM; in the assay on SF-539 CNS it was 3.06 µM; in the assay on COLO 205 colon, 5.05 µM; with NCI-H460 lung, 4.1 µM; with OVCAR-4 ovarian it was 26.6 µM; with M14 melanoma it was 21.4 µM. The TGI in the assay on SF-268 CNS is 14.1 µM; in the assay with SNB-19 CNS, 28.2 µM.
On to `CC(N)(/C=C/c1ccccc1)C(=O)O` (stereo unspecified), for which the TGI with K-562 leukemia, with ACHN renal, with SF-539 CNS, in the assay with COLO 205 colon, in the assay with NCI-H460 lung and in the assay on OVCAR-4 ovarian was > 100 µM throughout. In addition, the TGI in the assay with M14 melanoma, with SF-268 CNS and in the assay with SNB-19 CNS was > 100 µM in each case.
Consider `c1ccc2cc(NCNc3ccc4ccccc4c3)ccc2c1`, for which the TGI in the assay on K-562 leukemia stood at 38.8 µM; with ACHN renal, 38 µM; in the assay on SF-539 CNS it was 71.3 µM; in the assay with COLO 205 colon, 34.3 µM; in the assay on NCI-H460 lung, 28.9 µM; with OVCAR-4 ovarian, 26.6 µM. The TGI in the assay with M14 melanoma is 29.1 µM; in the assay with SF-268 CNS it was > 100 µM; with SNB-19 CNS, > 100 µM.
`COc1ccc2c(c1)[nH]c(=O)c1c3ccccc3cn21`: the GI50 in the assay on K-562 leukemia was 0.00892 µM; in the assay with ACHN renal it was 0.125 µM; in the assay with SF-539 CNS, 0.0228 µM; with COLO 205 colon it was 0.0412 µM; in the assay with NCI-H460 lung, 0.0348 µM; with HCC-2998 colon, 0.0183 µM. Besides, the figures for the GI50 with SF-268 CNS and in the assay with SNB-19 CNS were 0.0738 µM and 0.0387 µM, respectively. In addition, the TGI with ACHN renal is 1.83 µM and 6.41 µM; in the assay on SF-539 CNS, 0.0704 µM and 0.207 µM; in the assay on COLO 205 colon it was 1.16 µM; with NCI-H460 lung it was 1.12 µM; in the assay on M14 melanoma it was 12.9 µM; in the assay with HCC-2998 colon it was 0.0492 µM. Also, the TGI with SNB-19 CNS is 4.05 µM and 26.4 µM.
As to `Nc1nc(N)c(-c2ccccc2)c(C(=O)Nc2ccccc2)n1`, the TGI in the assay with K-562 leukemia, with ACHN renal, with SF-539 CNS, with COLO 205 colon, in the assay with NCI-H460 lung and with OVCAR-4 ovarian was > 100 µM throughout. Besides, the TGI in the assay with M14 melanoma, with SF-268 CNS and with SNB-19 CNS was > 100 µM in each case.
In the case of `Clc1ccc(Nc2ccnc(N3CCN(c4ccnc5cc(Cl)ccc45)CC3)n2)cc1`, the GI50 was 2.56 µM with K-562 leukemia; 1.92 µM in the assay with COLO 205 colon; 2.33 µM with NCI-H460 lung; 2.56 µM in the assay on OVCAR-4 ovarian; 1.77 µM in the assay with M14 melanoma; 3.39 µM with HCC-2998 colon. For the same molecule, the GI50 in the assay with SF-268 CNS is 3.33 µM; in the assay with SNB-19 CNS, 3.68 µM. Moreover, the TGI was 7.94 µM with K-562 leukemia; 4.63 µM in the assay on COLO 205 colon; 6.76 µM with NCI-H460 lung; > 100 µM in the assay with OVCAR-4 ovarian; 4.16 µM with M14 melanoma; 9.63 µM in the assay on HCC-2998 colon. Further, the TGI in the assay on SF-268 CNS stood at 16.2 µM; in the assay with SNB-19 CNS, 74.5 µM.
Take `O=c1c2ccccc2nc(/C=C(\O)c2ccncc2)n1-c1ccc(Cl)cc1`: the TGI with K-562 leukemia, with ACHN renal, in the assay on COLO 205 colon, in the assay with NCI-H460 lung, with OVCAR-4 ovarian and in the assay on M14 melanoma was > 100 µM each time. The TGI with SF-268 CNS and with SNB-19 CNS was > 100 µM throughout.
As for `COc1ccc2c(c1)oc(=O)c1cc(OC)ccc12`, the GI50 with K-562 leukemia, with SF-539 CNS, in the assay with COLO 205 colon, in the assay on NCI-H460 lung, in the assay on OVCAR-4 ovarian and with M14 melanoma was > 100 µM throughout. Further, the GI50 in the assay on HCC-2998 colon, in the assay with SF-268 CNS and in the assay on SNB-19 CNS was > 100 µM throughout. The TGI in the assay with K-562 leukemia, in the assay with SF-539 CNS, in the assay with COLO 205 colon, in the assay with NCI-H460 lung, with OVCAR-4 ovarian and in the assay with M14 melanoma was > 100 µM throughout. The TGI in the assay with HCC-2998 colon, with SF-268 CNS and with SNB-19 CNS was > 100 µM each time.
